pEC50, pIC50, pKi: −log10 of the molar value. Several values for one entry are separate records, joined by “and”; a condition that tells them apart may be missing. Equal entries are not always repeated. Where two headings read alike, the source gives them in different places.
Assays:
Human GPR120 = biological target: T1, Human GPR120 (Homo sapiens, UniProt Q5NUL3); assay: Human GPR120 b-arrestin; assay type: cell-based; conditions: Supplementary Table 1
T1 sequence (Q5NUL3 1-361): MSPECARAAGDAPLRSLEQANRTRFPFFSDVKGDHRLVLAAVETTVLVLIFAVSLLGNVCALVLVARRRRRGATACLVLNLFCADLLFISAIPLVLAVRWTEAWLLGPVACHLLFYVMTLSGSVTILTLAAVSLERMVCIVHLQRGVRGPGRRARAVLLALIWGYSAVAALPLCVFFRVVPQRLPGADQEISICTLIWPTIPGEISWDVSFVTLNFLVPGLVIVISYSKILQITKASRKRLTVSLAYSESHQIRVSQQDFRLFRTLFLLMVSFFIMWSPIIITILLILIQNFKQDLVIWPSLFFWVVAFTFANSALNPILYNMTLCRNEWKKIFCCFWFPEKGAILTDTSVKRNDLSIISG

human PPARdelta = biological target: T2, human PPARdelta (Homo sapiens, UniProt Q03181); assay: human PPARdelta binding; conditions: Supplementary Table 1
T2 sequence (Q03181 1-441): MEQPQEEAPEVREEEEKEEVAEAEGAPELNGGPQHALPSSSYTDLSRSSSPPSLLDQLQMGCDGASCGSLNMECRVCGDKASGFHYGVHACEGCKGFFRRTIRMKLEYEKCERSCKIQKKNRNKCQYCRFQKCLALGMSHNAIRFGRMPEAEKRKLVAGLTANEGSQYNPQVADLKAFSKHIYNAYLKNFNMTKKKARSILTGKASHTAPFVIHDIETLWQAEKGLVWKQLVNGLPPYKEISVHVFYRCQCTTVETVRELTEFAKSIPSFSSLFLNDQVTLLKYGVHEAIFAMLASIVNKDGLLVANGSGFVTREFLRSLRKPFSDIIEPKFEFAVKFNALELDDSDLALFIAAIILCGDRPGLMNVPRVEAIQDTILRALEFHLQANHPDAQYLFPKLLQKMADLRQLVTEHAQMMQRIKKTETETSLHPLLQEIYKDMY

human GPR40 = biological target: T3, human GPR40 (Homo sapiens, UniProt O14842); assay: Ca2+ mobilization assay (FLIPR), HEK293 cells stably overexpressing GPR40; assay type: cell-based; conditions: for Ca2+ mobilization (FLIPR) Top: relative to 500 µM linoleic acid; for agonist type in Ca2+ mobilization assay: relative to 500 µM of the natural ligand, linoleic acid
T3 construct: HEK293 cells stably overexpressing full length human GPR40; expressed in transfected cells
Description: HEK293 cells stably overexpressing full length human GPR40 were plated (50K cells/well) into 96-well microtiter plates using Dulbecco’s Modified Eagle’s Medium (DMEM) supplemented with 10% certified fetal bovine serum (FBS), 20 mM HEPES, pH 7.4, 1 mM Sodium Pyruvate, 100 U/mL Penicillin, 100 µg/mL Streptomycin, and 800 µg/mL Geneticin. The cells were incubated overnight at 37 °C and 5% CO2. Calcium 4 dye (Molecular Devices) diluted in assay buffer was added (100 µL per well) to the cell plates, followed by a 1 h incubation in the dark at 25 °C. Test compounds were serially diluted three-fold in 100% DMSO and immediately diluted in assay buffer. […] Receptor activation was immediately measured as an increase in intracellular calcium using the FLIPR® over 3 min. To determine agonist responses, relative fluorescence units (RFUs) over 60 reads were calculated per well and used to calculate percent stimulation relative to 500 µM of the natural ligand, linoleic acid, response. EC50 values were calculated by plotting test compound concentration vs. percent stimulation using a 4-parameter logistic curve fitting equation.

human PPARgama = biological target: T4, human PPARgama (Homo sapiens, UniProt P37231); assay: human PPARgamma binding; conditions: Supplementary Table 1
T4 sequence (P37231 1-505): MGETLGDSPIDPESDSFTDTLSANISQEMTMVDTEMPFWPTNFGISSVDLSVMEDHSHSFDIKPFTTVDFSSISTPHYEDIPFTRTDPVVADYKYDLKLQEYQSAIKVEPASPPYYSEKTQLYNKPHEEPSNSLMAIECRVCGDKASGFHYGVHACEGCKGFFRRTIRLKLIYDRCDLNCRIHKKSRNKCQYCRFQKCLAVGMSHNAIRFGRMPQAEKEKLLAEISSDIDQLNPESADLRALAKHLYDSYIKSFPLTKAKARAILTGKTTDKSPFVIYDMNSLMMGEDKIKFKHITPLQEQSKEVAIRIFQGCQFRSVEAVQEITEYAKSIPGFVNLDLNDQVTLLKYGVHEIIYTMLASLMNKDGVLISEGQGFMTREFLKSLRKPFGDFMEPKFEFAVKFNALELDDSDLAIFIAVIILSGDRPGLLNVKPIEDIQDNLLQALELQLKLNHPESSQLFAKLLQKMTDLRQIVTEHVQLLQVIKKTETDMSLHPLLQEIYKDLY

human GPR40 (A2 site) = biological target: T5, human GPR40 (A2 site) (Homo sapiens, UniProt O14842); assay: A2 site radioligand binding with [3H]-AM-1638
T5 construct: full length recombinant human GPR40 (GPR40) cDNA; expressed in transfected cells; host or cells: HEK 293, stably transfected; crude cell surface membranes
Description: Crude cell surface membranes were prepared from human embryonic kidney 293 (HEK 293) cells stably transfected (for the wild type) or transiently transfected (for the mutants and corresponding wild type) with full length recombinant human GPR40 (GPR40) cDNA, using differential centrifugation methods.
A2 Site Binding. 10 µL of compound diluted in 100% DMSO and 90 µL of Assay Buffer (50 mM Tris-HCl, pH 7.5, 10 mM CaCl2, 10 mM MgCl2, 0.1% w/v Bacitracin, 2.5% w/v dextran charcoal-treated FBS) were added to a deep 96-well polypropylene assay plate (Beckman Coulter). Two hundred μl of [^3H]-AM-1638 (84 Ci/mmol, Quotient Bioresearch Radiochemicals, Ltd.; 0.5 nM final concentration) and 200 µL of GPR40 membranes (5 µg/well), both diluted in Assay Buffer, were added to the assay plate, followed by a 1 min shake and a 1 h incubation at room temperature (22 °C).
Assays were terminated by filtration through GF/C glass fiber filtermats (Perkin Elmer) presoaked in 50 mM Tris–HCl, pH 7.5, using a Mach III cell harvester (TomTec). Filtermats were washed two times with 5 mL of ice-cold 50 mM Tris–HCl, pH 7.5 buffer, dried 1 h in a convection oven at 60 °C and embedded with Meltilex A solid scintillant (Perkin Elmer). Radioactivity was determined as counts per min (cpm) using a Trilux Microbeta plate scintillation counter (Perkin Elmer).

T5 sequence (O14842 whole entry): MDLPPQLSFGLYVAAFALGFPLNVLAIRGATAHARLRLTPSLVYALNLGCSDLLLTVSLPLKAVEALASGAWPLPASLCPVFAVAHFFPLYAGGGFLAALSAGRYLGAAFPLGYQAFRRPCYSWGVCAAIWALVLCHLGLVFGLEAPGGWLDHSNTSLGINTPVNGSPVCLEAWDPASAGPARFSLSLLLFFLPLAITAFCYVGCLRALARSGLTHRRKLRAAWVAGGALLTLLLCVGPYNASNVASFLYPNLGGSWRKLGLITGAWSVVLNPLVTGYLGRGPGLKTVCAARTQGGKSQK
T3 sequence (O14842 whole entry): as above

SMILES	pEC50 (Human GPR120)	pIC50 (human PPARdelta)	Ca2+ mobilization (FLIPR) Top (human GPR40) [%]	agonist type in Ca2+ mobilization assay (human GPR40)	pKi (human PPARgama)	effect on [3H]-AM-1638 binding (human GPR40 (A2 site); addition of unlabeled compound, Supplementary Fig. 1a)	pEC50 (human GPR40; GPR40-Gαq signaling, stably transfected cells, no TAK-875)	cooperativity composite factor (Log αβ) (human GPR40; compound 1 with TAK-875, operational model, slope constrained to 1)	efficacy modulation cooperativity factor (β) (human GPR40; cooperativity between TAK-875 and compound 1)	average α-factor (human GPR40; cooperativity between TAK-875 and compound 1, averages from Figs. 1a and 8a)	pKi (human GPR40 (A2 site); Supplementary Table 1, read-out: Human GPR40 Binding to A2 Ki)	pKi (human GPR40 (A2 site); competitive radioligand binding, membranes from stably transfected cells, Fig. 1a, read-out: Ki in [3H]-AM-1638 binding)
Cc1cc(OCCCS(C)(=O)=O)cc(C)c1-c1cccc(COc2ccc3c(c2)OC[C@H]3CC(=O)O)c1 [TAK-875]	< 4.00	< 5.00	81.67	partial agonist	< 5.00	enhanced						
COc1ccc(C(=O)N(CC(C)(C)C)c2cccc(C)n2)c(N2CCC(c3cc4ccc([C@@H](CC(=O)O)C5CC5)cc4o3)CC2)c1 [compound 1]	< 4.00	< 5.00	136.3	full agonist	< 5.00		7.14 and ~7.14	1.46	14	2.1	9.05	9.09
